Results reported in patent publication EP2408450B1, “ALPHA-(N-SULFONAMIDO)ACETAMIDE COMPOUND AS AN INHIBITOR OF BETA AMYLOID PEPTIDE PRODUCTION” (Bristol-Myers Squibb Company, priority 2009, dated 2010).
Marks after values point to notes of the source that are not given here.

Key:
[1] = Metabolic stability in liver microsomes (dog); assay type: in vitro ADME
Protocol: (§1) Mouse, rat, dog, human, and cynomolgus monkey liver microsomes were obtained from BD Gentest (Woburn, MA). The lot numbers were 13 (mouse), 8 (rat), 8 (dog), 19 and 26 (human), and 3 (cynomolgus monkey). […] The reaction, conducted in triplicate, was initiated by the addition of NADPH followed by incubation at 37°C for 50 minutes. Aliquots of samples (0.25 mL) were taken at 0, 5, 10, 20, 30, 40 and 50 minutes and the reaction was quenched by the addition of 3 volumes of acetonitrile. […] The reaction, conducted in triplicate, was initiated by the addition of NADPH followed by incubation at 37 °C for 50 minutes. Aliquots of samples (0.25 mL) were taken at 0, 5, 10, 20, 30, 40 and 50 minutes and the reaction was quenched by the addition of 3 volumes of acetonitrile. […] The reaction, conducted in duplicate, was initiated by the addition of NADPH followed by incubation at 37°C for 40 minutes. Aliquots of samples (0.25 mL) were taken at 0, 5, 10, 15, 20, 30 and 40 minutes and the reaction was quenched by the addition of 3 volumes of acetonitrile. For all studies, samples were analyzed immediately by an LC/MS method.

[2] = Metabolic stability in liver microsomes (cynomolgus monkey); assay type: in vitro ADME
Protocol: as §1

[3] = Metabolic stability in liver microsomes (human); assay type: in vitro ADME
Protocol: as §1

Aβ40 = assay: Inhibition of Aβ40 formation in cultured H4 APP751 SWE cells; assay type: cell-based; settings: H4-8Sw cells, mean ± SD, n = 50
Protocol: Cells were maintained in log phase through twice weekly passage at a 1:20 dilution. […] Following incubation for 19 hours in 5% CO2 at 37°C, plates were briefly centrifuged (1000 rpm, 5 min). […] Antibody cocktails were freshly prepared by dilution into 40 mM Tris-HCl (pH 7.4) with 0.2% BSA and added to assay plates. […] Assay plates containing antibodies were sealed with aluminum foil and incubated overnight at 4°C. Signal was determined using a Viewlux counter (Perkin Elmer) and IC50 values determined using curve fitting in CurveMaster (Excel Fit based).

brain Aβ40 = assay: Rat brain Aβ40 assay (252-TSD ELISA); assay type: in vivo; settings: for Day 7 5hr Brain Aβ40 (%Veh): 7 days; for Terminal Brain Aβ40 (%Veh) 5hr: 5 hours after the fourth dose; for Terminal Brain Aβ40 (%Veh) 12hr: 12 hours after the third dose; for Terminal Brain Aβ40 (%Veh) 24hr: 24 hours after the third dose; for brain Aβ40, % of baseline Aβ40 values: 2 to 24 hours post dosing
Protocol: All procedures were done in concordance with ACUC guidelines. […] Plasma was obtained after centrifugation. […] CSF samples were centrifuged to remove cells or debris prior to dilution at 1:2 in 4% BSA and frozen for subsequent analysis. […] Rat brain (half a hemisphere) was homogenized using a polytron at 4 mL/g in PBS, pH 7.8, 2% CHAPS, complete protease inhibitors (Roche). […] White Microlite II ELISA plates (Thermo Electron) were incubated with 50 µg/mL TSD9S3.2 antibody in PBS for 1 hour at 37°C. Plates were blocked with 200 µL 5% bovine serum albumin (BSA; weight/volume prepared in PBS) for 2 hours at room temperature on a plate shaker and then washed 5 times with 500 µL/well of PBS, 0.05% Tween-20. Clarified brain homogenates were loaded in 6 replicates of 50 µL per well and incubated for 1 hour at room temperature. […] Samples were normalized to a brain homogenate reference placed on each plate.

proximal duodenum = assay: Histopathology of the proximal duodenum (GI toxicity) in rats; assay type: in vivo, rat; settings: for Day 4 GI Tox: 4 days; for Day 7 GI Tox: 7 days; for GI Tox: 4-day
Protocol: Female Harlan Sprague-Dawley rats (∼200 - 250 g) were dosed daily by oral gavage with a dosing vehicle of 99% PEG-400, 1% Tween-80 at 4 mL/kg in the morning. […] All procedures were done in concordance with ACUC guidelines. […] Plasma was obtained after centrifugation. […] CSF samples were centrifuged to remove cells or debris prior to dilution at 1:2 in 4% BSA and frozen for subsequent analysis.
Following euthanasia by CO2 asphyxiation, approximately 3 cm long sections of the proximal duodenum were removed from the abdomen, rinsed with ice cold Phosphate buffered saline and placed into 10% buffered formalin prior to sectioning. Tissue sections of the duodenum were embedded in liquid paraffin, mounted onto blocks, and cut into triplicate sagittal (cross-luminal) ring sections and stained using the Periodic acid Schiff's base method prior to microscopic evaluation. All animals survived until scheduled necropsy was performed.

CYP3A4 mRNA = assay: Induction of CYP3A4 mRNA in Fa2N-4 cells; settings: Fa2N-4 hepatocytes, 3 days
Protocol: [[2-fluoro-4-(1,2,4-oxadiazol-3-yl)phenyl]methyl]amino]-5,5,5-trifluoropentanamide to induce CYP3A4 mRNA was evaluated in vitro using the Fa2N-4 cell line. The Fa2N-4 cell is an immortalized human hepatocyte line that was created using the Simian virus 40 (SV40) T antigen as the immortalizing gene, while retaining basal expression and inducibility of several CYP isoforms, including CYP3A4. Fa2N-4 cells and MFE Support Media F were provided by XenoTech, LLC (Lenexa, Kansas).
Upon the receipt of the cells, the media were changed and the cells maintained overnight in a humidified, CO2-supplied incubator. After this adaptation period, the cells were examined under a light microscope and a determination was made as to whether the cells were morphologically normal and suitable for use. During the treatment period, the cells were visually inspected on a daily basis; cellular morphology, confluency, and signs of toxicity due to the test article were documented as necessary. […] Rifampicin (10 µM), a prototypical CYP3A4 inducer, was used as the positive control. Fa2N-4 cells were exposed to the test articles for a total of 3 days. The culture medium was replaced daily with fresh medium containing the test articles. After a total of ~72 hours of exposure, medium was aspirated and the cells washed once with warm phosphate buffered saline solution before adding the cell lysis buffer (Qiagen, Valencia, CA).

mouse Notch1-ΔE = assay: Inhibition of Notch1-ΔE signaling in Hela cells (CBF1-luciferase reporter); settings: read-out: IC50 for inhibition of Notch1-ΔE signaling
Protocol: The mouse Notch1-ΔE construct contains the mouse Notch1 signal sequence and the M1727V mutation within the transmembrane domain to suppress internal translation initiation.
Hela cells were maintained in DMEM (GibcoBRL) containing 10% FBS (GibcoBRL), Penicillin/Streptomycin (GibcoBRL) and 2 mM L-glutamine (GibcoBRL). Cells were transiently transfected using TransIT-HelaMONSTER (Mirus) according to the manufacturer's directions. […] The CBF1-luciferase reporter construct consists of 4X copies of the CBF1 binding element upstream of the SV40 promoter (pGL3-Promoter, Promega). […] DNA stocks were diluted in TE buffer (10 mM Tris, 1 mM EDTA, pH 8.0) for transfection. […] Test compounds were initially diluted in a 96 well polypropylene plate in 100% DMSO. […] Diluted compound solutions (10 µL) were added to the cell plate yielding a final 0.1 % DMSO concentration. Cell plates containing compound were incubated overnight at 37°C. Following this overnight incubation, media was gently removed and 25 µL of phosphate buffered saline (with calcium and magnesium) was added to each well. Luc-Screen (Applied Biosystems) reagents A and B were mixed in equal proportions and 50 µL of the mixture was added to each well. The plate was incubated at room temperature for 10 minutes before black backing was attached to the bottom of the plate and the signal was read on a TopCount (Packard). […]

[4] = rat, Study No. 2, 100 mg/kg/day

With `NC(=O)[C@@H](CCC(F)(F)F)N(Cc1ccc(-c2ncon2)cc1F)S(=O)(=O)c1ccc(Cl)cc1` [(2R)-2-[[(4-chlorophenyl)sulfonyl][[2-fluoro-4-(1,2,4-oxadiazol-3-yl)phenyl]methyl]amino]-5,5,5-trifluoropentanamide] as the compound, how does the “rate of in vitro metabolism” value ([1]; dog microsomes, NADPH-fortified, 1 µM) read?
Its value is 40 pmol/min/mg protein.

What about the “predicted in vivo (serum) clearance” value ([1]; dog, scaled from liver microsome rate) of the same compound?
Its value is roughly 14 mL/min/kg.

And the “rate of in vitro metabolism” value ([2]; cynomolgus monkey microsomes, NADPH-fortified, 1 µM)?
Its value is 495 pmol/min/mg protein.

What about the “predicted in vivo (serum) clearance” value ([2]; cynomolgus monkey, scaled from liver microsome rate) of the same compound?
The value was roughly 39 mL/min/kg.

And the “rate of in vitro metabolism” value ([3]; human microsomes, NADPH-fortified, 1 µM)?
Its value is 32 pmol/min/mg protein.

And the “predicted in vivo (serum) clearance” value ([3]; human, scaled from liver microsome rate)?
Its value is roughly 8 mL/min/kg.

What about the IC50 (Aβ40) of the same compound?
The IC50 was 0.3 ± 0.15 nM.

And the “Day 7 5hr Brain Aβ40 (%Veh)” value (brain Aβ40; Rat Study No. 3, 30 mg/kg/day)?
Its value is 13%Veh.

And the “Day 7 5hr Brain Aβ40 (%Veh)” value (brain Aβ40; Rat Study No. 3, 300 mg/kg/day)?
The value was 13%Veh.

And the ED50 (brain Aβ40; acute rat studies, read-out: ED50 for reduction of brain Aβ40)?
Its ED50 is 1 to 10 mg/kg.

What about the “Brain % Aβ AUC Reduction” value (brain Aβ40; rat, Study No. 2, 3 mg/kg/day) of the same compound?
Its value is 57%.

What about the “Terminal Brain Aβ40 (%Veh) 5hr” value (brain Aβ40; rat, Study No. 2, 3 mg/kg/day) of the same compound?
The value was 16%Veh.

And the “Terminal Brain Aβ40 (%Veh) 12hr” value (brain Aβ40; rat, Study No. 2, 3 mg/kg/day)?
The value was 34%Veh.

What about the “Terminal Brain Aβ40 (%Veh) 24hr” value (brain Aβ40; rat, Study No. 2, 3 mg/kg/day) of the same compound?
The value was 94%Veh.

And the “Brain % Aβ AUC Reduction” value (brain Aβ40; rat, Study No. 2, 10 mg/kg/day)?
Its value is 91%.

And the “Terminal Brain Aβ40 (%Veh) 5hr” value (brain Aβ40; rat, Study No. 2, 10 mg/kg/day)?
The value was 6%Veh.

What about the “Terminal Brain Aβ40 (%Veh) 12hr” value (brain Aβ40; rat, Study No. 2, 10 mg/kg/day) of the same compound?
Its value is 4%Veh.

What about the “Terminal Brain Aβ40 (%Veh) 24hr” value (brain Aβ40; rat, Study No. 2, 10 mg/kg/day) of the same compound?
The value was 23%Veh.

And the “Brain % Aβ AUC Reduction” value (brain Aβ40; rat, Study No. 2, 30 mg/kg/day)?
Its value is 93%.

And the “Terminal Brain Aβ40 (%Veh) 5hr” value (brain Aβ40; rat, Study No. 2, 30 mg/kg/day)?
The value was 6%Veh.

And the “Terminal Brain Aβ40 (%Veh) 12hr” value (brain Aβ40; rat, Study No. 2, 30 mg/kg/day)?
Its value is 4%Veh.

What about the “Terminal Brain Aβ40 (%Veh) 24hr” value (brain Aβ40; rat, Study No. 2, 30 mg/kg/day) of the same compound?
The value was 15%Veh.

What about the “Brain % Aβ AUC Reduction” value (brain Aβ40; [4]) of the same compound?
Its value is 96%.

What about the “Terminal Brain Aβ40 (%Veh) 5hr” value (brain Aβ40; [4]) of the same compound?
Its value is 3%Veh.

And the “Terminal Brain Aβ40 (%Veh) 12hr” value (brain Aβ40; [4])?
Its value is 3%Veh.

And the “Terminal Brain Aβ40 (%Veh) 24hr” value (brain Aβ40; [4])?
Its value is 7%Veh.

What about the “Brain % Aβ AUC Reduction” value (brain Aβ40; rat, Study No.1, 3 mg/kg/day) of the same compound?
Its value is 49%.

And the “Terminal Brain Aβ40 (%Veh) 5hr” value (brain Aβ40; rat, Study No.1, 3 mg/kg/day)?
Its value is 39%Veh.

What about the “Terminal Brain Aβ40 (%Veh) 12hr” value (brain Aβ40; rat, Study No.1, 3 mg/kg/day) of the same compound?
Its value is 35%Veh.

And the “Terminal Brain Aβ40 (%Veh) 24hr” value (brain Aβ40; rat, Study No.1, 3 mg/kg/day)?
The value was 92%Veh.

And the “Brain % Aβ AUC Reduction” value (brain Aβ40; rat, Study No.1, 10 mg/kg/day)?
The value was 85%.

What about the “Terminal Brain Aβ40 (%Veh) 5hr” value (brain Aβ40; rat, Study No.1, 10 mg/kg/day) of the same compound?
The value was 12%Veh.

And the “Terminal Brain Aβ40 (%Veh) 12hr” value (brain Aβ40; rat, Study No.1, 10 mg/kg/day)?
Its value is 9%Veh.

And the “Terminal Brain Aβ40 (%Veh) 24hr” value (brain Aβ40; rat, Study No.1, 10 mg/kg/day)?
The value was 28%Veh.

What about the “Brain % Aβ AUC Reduction” value (brain Aβ40; rat, Study No.1, 30 mg/kg/day) of the same compound?
Its value is 90%.

And the “Terminal Brain Aβ40 (%Veh) 5hr” value (brain Aβ40; rat, Study No.1, 30 mg/kg/day)?
Its value is 8%Veh.

And the “Terminal Brain Aβ40 (%Veh) 12hr” value (brain Aβ40; rat, Study No.1, 30 mg/kg/day)?
Its value is 9%Veh.

And the “Terminal Brain Aβ40 (%Veh) 24hr” value (brain Aβ40; rat, Study No.1, 30 mg/kg/day)?
The value was 13%Veh.

What about the “change in brain Aβ40” value (brain Aβ40; rat, single dose 1 mg/kg) of the same compound?
Its value is “did not cause a statistically significant change”.

And the “brain Aβ40, % of baseline Aβ40 values” (brain Aβ40; rat, single dose 10 mg/kg)?
Its value is “less than 25%”.

What about the “brain Aβ40, % of vehicle control” value (brain Aβ40; rat, single dose 30 mg/kg) of the same compound?
The value was 16%.

And the “brain Aβ40, % of baseline Aβ40 values” (brain Aβ40; rat, single dose 100 mg/kg)?
The value was “less than 25%”.

What about the “Brain Aβ40 levels at termination, % of the vehicle control” value (brain Aβ40; rats, 30 or 300 mg/kg/day, 5 hours post dose) of the same compound?
The value was 13%.

What about the “Brain Aβ40 AUC reduction” value (brain Aβ40; subchronic rat studies, doses of 10 mg/kg/day or higher) of the same compound?
The value was “greater than 85%”.

And the “rats with mild lesions in duodenal tissue (histological evaluation)” value (proximal duodenum; 100 mg/kg/day, 4-day rat study)?
Its value is 1/3.

What about the “Day 4 GI Tox” value (proximal duodenum; Rat Study No. 3, 30 mg/kg/day) of the same compound?
Its value is “NAD”.

What about the “Day 7 GI Tox” value (proximal duodenum; Rat Study No. 3, 30 mg/kg/day) of the same compound?
The value was “NAD”.

And the “Day 4 GI Tox” value (proximal duodenum; Rat Study No. 3, 300 mg/kg/day)?
The value was “+^b”.

And the “Day 7 GI Tox” value (proximal duodenum; Rat Study No. 3, 300 mg/kg/day)?
The value was “NAD”.

And the “dose needed to induce GI toxicity” value (proximal duodenum; female, Harlan Sprague-Dawley, rat, in vivo)?
The value was 100 mg/kg/day.

And the “GI Tox” value (proximal duodenum; rat, Study No. 2, 3 mg/kg/day)?
Its value is “NAD”.

And the “GI Tox” value (proximal duodenum; rat, Study No. 2, 10 mg/kg/day)?
The value was “NAD”.

And the “GI Tox” value (proximal duodenum; rat, Study No. 2, 30 mg/kg/day)?
Its value is “NAD”.

What about the “GI Tox” value (proximal duodenum; [4]) of the same compound?
The value was “+^e”.

And the “GI Tox” value (proximal duodenum; rat, Study No.1, 3 mg/kg/day)?
The value was “NAD”.

And the “GI Tox” value (proximal duodenum; rat, Study No.1, 10 mg/kg/day)?
Its value is “NAD”.

What about the “GI Tox” value (proximal duodenum; rat, Study No.1, 30 mg/kg/day) of the same compound?
The value was “NAD”.

And the drug-related duodenal changes (proximal duodenum; rats given ≤ 30 mg/kg)?
The drug-related duodenal changes was “No drug-related duodenal changes”.

What about the “microscopic evaluation of the proximal duodenum” value (proximal duodenum; rats, 100 mg/kg/day once daily for 4 days, 1 of 3 animals) of the same compound?
The value was “slight goblet cell metaplasia”.

And the “increase in CYP3A4 mRNA expression over the vehicle control” value (CYP3A4 mRNA; highest concentration tested (20 µM))?
The value was 2.6 fold.

What about the “induction of CYP3A4” value (CYP3A4 mRNA; lower concentrations (≤ 8.0 µM)) of the same compound?
Its value is no more than 2.0 fold.

And the IC50 (mouse Notch1-ΔE)?
Its IC50 is 58 ± 23 nM.
